In patent US8299106B2, “Compositions of kinase inhibitors and their use for treatment of cancer and other diseases related to kinases” (Boston Biomedical, Inc., priority 2007, dated 2012):

Legend:
HT29 = experiment: Colony formation assay (CFA), HT29; format: cell-based; settings: grown 7-10 days
Protocol: (§1) Cell Viability Determination: For colony formation assay, cells were plated in 6 well plates at 2000 cells per well. Twenty-four hours after plating, cells were treated with compound. Colonies were allowed to develop for 7-10 days, at which they were stained with modified Giemsa stain (Sigma). Stained colonies were then counted to determine IC50.
(§2) Compounds 5 [as shown in Example 1], 3 [as shown in Example 1], 7-1[as shown in Example 1], 10-2 [as shown in Example 3], 10-1 [as shown in Example 2], and 13-1 [as shown in Example 4] were tested for their ability to inhibit cell growth and promote cell death using the colony formation assay (CFA). Cells were treated for either 6 or twenty-four hours with the indicated compounds, and then allowed to grow for an additional 7-10 days. Cells were then stained, and colonies counted to determine IC-50 values.
(§3) Similarly, Compound 10-2 [as shown in Example 3] was tested against a wide range of cancer cell lines.

MDA-MB-231 = experiment: Colony formation assay (CFA), MDA-MB-231; format: cell-based; settings: grown 7-10 days
Protocol: as §1, §2

FaDu = experiment: Colony formation assay (CFA), FaDu; format: cell-based; settings: Homo sapiens, treated 6 or 24 hours, grown 7-10 days
Protocol: as §1, §2, §3

[1] = test system: Hoechst side population of SW480 cells; experiment: Colony formation assay, Hoechst side population vs non-side population; format: cell-based; settings: colony formation assays, FIG. 4B
Protocol: as §1
Hoechst Side Population: SW480 cells were removed from the culture dish with trypsin and ethylenediaminetetraacetic acid (“EDTA”), pelleted by centrifugation, washed with phosphate-buffered saline (PBS), and resuspended at 37° C. in Dulbecco's modified Eagle's medium (DMEM) containing 2% FBS and 1 mM 4-(2-hydroxyethyl)-1-piperazineethanesulfonic acid (HEPES). The cells were then labeled with Hoechst 33342 (Invitrogen) at a concentration of 5 μg/mL. The labeled cells were incubated for 120 minutes at 37° C., either alone or with 50 μM verapamil (Sigma-Aldrich, St. Louis). After staining, the cells were suspended in Hanks' balanced saline solution (HBSS; Invitrogen) containing 2% FBS and 1 mM HEPES, passed a through 40 μm mesh filter, and maintained at 4° C. until flow cytometry analysis. The Hoechst dye was excited at 350 nm, and its fluorescence was measured at two wavelengths using a 450 DF10 (450/20 nm band-pass filter) and a 675LP (675 nm long-pass edge filter) optical filter. […]

SW480 cells = experiment: Hoechst side population staining of SW480 cells; format: cell-based; settings: treated before Hoechst staining (50 μM), FIG. 4A
Protocol: Hoechst Side Population: SW480 cells were removed from the culture dish with trypsin and ethylenediaminetetraacetic acid (“EDTA”), pelleted by centrifugation, washed with phosphate-buffered saline (PBS), and resuspended at 37° C. in Dulbecco's modified Eagle's medium (DMEM) containing 2% FBS and 1 mM 4-(2-hydroxyethyl)-1-piperazineethanesulfonic acid (HEPES). The cells were then labeled with Hoechst 33342 (Invitrogen) at a concentration of 5 μg/mL. The labeled cells were incubated for 120 minutes at 37° C., either alone or with 50 μM verapamil (Sigma-Aldrich, St. Louis). After staining, the cells were suspended in Hanks' balanced saline solution (HBSS; Invitrogen) containing 2% FBS and 1 mM HEPES, passed a through 40 μm mesh filter, and maintained at 4° C. until flow cytometry analysis. The Hoechst dye was excited at 350 nm, and its fluorescence was measured at two wavelengths using a 450 DF10 (450/20 nm band-pass filter) and a 675LP (675 nm long-pass edge filter) optical filter. The gating on forward and side scatter was not stringent, and only debris was excluded (Goodell et al., 1996 J Exp Med 183, 1797-806).
SW480 cells were stained with Hoechst. The side population (shown in FIG. 4A, upper left panel gated area) was sorted out to enrich the cancer stem cells. […]

FaDu xenograft tumors = experiment: Spherogenesis of cells from treated FaDu xenograft tumors; format: in vivo, mice; settings: daily po for four days; carboplatin 30 mg/kg, 10-2 100 mg/kg; spheres after 10-14 days
Protocol: In addition, we also tested if compound 10-2 can target cancer stem cells in vivo. Six-week-old female athymic nu/nu mice were obtained from Charles River Labs (Wilmington, Mass.). Mice were injected subcutaneously on the flank with 6×10^6 FaDu cancer cells in 0.2 mL of serum-free DMEM. After xenografts reached ˜200 mm^3 in size, animals bearing FaDu xenograft tumors were administered daily with either vehicle, carboplatin (30 mg/kg), or compound 10-2 (100 mg/kg) via po for four days before sacrifice. Tumors were then collected for FaDu cells. Single cell suspensions were obtained following animal sacrifice, and sterile removal of tumors. Briefly, tumors were minced with sterile scalpels into 0.1 mm^3 pieces before being digested in 1 mg/mL collagenase/HBSS for 15-30 minutes with constant agitation. Following passage through a 40 μm mesh filter, RBCs, dead cells, and cell debris were removed by layering the cell suspension onto 1 mL of Histopaque and collecting interface layer after centrifugation at 1440×g for 30 minutes. Live cells were then counted and used to measure their ability to form spheres. […] Fresh media was added every three days, and sphere formation was determined after 10-14 days in culture. Spheres with >50 cells were scored. […]

[2] = Homo sapiens, HT-29, treated 6 or 24 hours
[3] = Homo sapiens, MDA-MB-231, treated 6 or 24 hours

| IC50 (HT29; [2]) | IC50 (MDA-MB-231; [3]) | SMILES | also measured |
| --- | --- | --- | --- |
|  |  | Cc1nc(-c2ccc3c(c2)CC(=O)N3)cs1 [Compound 3] | IC50 (HT29; treated 6 or 24 hours): 50000 to 300000 nM; IC50 (MDA-MB-231; treated 6 or 24 hours): 50000 to 300000 nM |
| 1500 to 3000 nM | 800 to 1500 nM | Cc1[nH]c(/C=C2\C(=O)Nc3ccc(-c4csc(-c5ccccc5)n4)cc32)c(C)c1C(=O)N1CCN(C)CC1 [Compound 10-1] |  |
| 400 to 800 nM | 100 to 250 nM | Cc1[nH]c(/C=C2\C(=O)Nc3ccc(-c4csc(-c5cccnc5)n4)cc32)c(C)c1C(=O)N1CCN(C)CC1 [Compound 13-1] |  |
|  |  | CCN(CC)CCNC(C)c1c(C)[nH]c(/C=C2\C(=O)Nc3ccc(-c4csc(-c5cccnc5)n4)cc32)c1C (stereo not drawn) [Compound 13-2] | IC50 (FaDu): 300 to 400 nM |
|  |  | COc1cccc2c1C(=O)c1c(O)c3c(c(O)c1C2=O)C[C@@](O)(C(=O)CO)C[C@@H]3O[C@H]1C[C@H](N)[C@H](O)[C@H](C)O1 [Doxorubicin] | side population relative to non-side population [1]: more resistant |
|  |  | COc1ccc(CCN(C)CCCC(C#N)(c2ccc(OC)c(OC)c2)C(C)C)cc1OC (stereo not drawn) [Verapamil] | effect on Hoechst side population (SW480 cells): loss of the side population |
|  |  | N.N.O=C([O-])C1(C(=O)[O-])CCC1.[Pt+2] [carboplatin] | spherogenesis of tumor cells after in vivo treatment (FaDu xenograft tumors): unchanged spherogenesis |

| SMILES | IC50 (HT29; [2]) | IC50 (MDA-MB-231; [3]) | also measured |
| --- | --- | --- | --- |
| Cc1nc(-c2ccc3c(c2)/C(=C/c2[nH]c(C)c(C(=O)N4CCN(C)CC4)c2C)C(=O)N3)cs1 [Compound 7-1] | 6000 to 10000 nM | 6000 to 10000 nM |  |
